Data: patent US10770169B2, “Method of providing a treatment to a subject based on a dynamic pathway map” (THE REGENTS OF THE UNIVERSITY OF CALIFORNIA, priority 2010, dated 2020)
Like-named read-outs stand apart in the source and are kept apart here.

What was measured:
[1] = system: panel of 55 breast cancer cell lines; assay: Cell growth inhibition assay (Cell Titer Glo, 72 h, 9 doses; GI50, TGI, LC50); assay type: cell-based, human; conditions: Homo sapiens, read-out: GI50 (converted)
[2] = system: luminal, basal, claudin-low and ERBB2AMP breast cancer cell lines; assay: Associations of clinically relevant subtypes and response (non-parametric ANOVA or t-test on GI50 ranks); assay type: cell-based, human; conditions: Table 6; most sensitive subtype, FDR p<0.20
How it was run: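 Significance was set at FDR p<0.20 after combining p-values across three test sets. Subtype–response associations came from rank-based non-parametric ANOVA or t-tests on GI50. For three-class comparisons, post-hoc tests of each group against the rest identified the most sensitive group, with FDR correction.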

CCNCCCNC/C=C\CNCCCNCC [CGC-11047]
GI50 ([1]; 600MPE cell line, censored GI50 values): 468 µM | GI50 ([1]; AU565, AU565 cell line, censored GI50 values): 288 µM | GI50 ([1]; AU565, cell line AU565): 288 µM | GI50 ([1]; BT-474, BT474 cell line, censored GI50 values): 269 µM | GI50 ([1]; BT-474, cell line BT474): 269 µM | GI50 ([1]; BT-483, BT483 cell line, censored GI50 values): 589 µM | GI50 ([1]; BT-483, cell line BT483): 589 µM | GI50 ([1]; BT-549, BT549 cell line, censored GI50 values): 29.5 µM | GI50 ([1]; BT-549, cell line BT549): 29.5 µM | GI50 ([1]; CAMA-1, CAMA1 cell line, censored GI50 values): 1260 µM | GI50 ([1]; CAMA-1, cell line CAMA1): 1260 µM | GI50 ([1]; HCC38, HCC38 cell line, censored GI50 values): 11.7 µM | GI50 ([1]; HCC38, cell line HCC38): 11.7 µM | GI50 ([1]; HCC70, HCC70 cell line, censored GI50 values): 2.09 µM | GI50 ([1]; HCC70, cell line HCC70): 2.09 µM | GI50 ([1]; HCC202, HCC202 cell line, censored GI50 values): 14.5 µM | GI50 ([1]; HCC202, cell line HCC202): 14.5 µM | GI50 ([1]; HCC1143, HCC1143 cell line, censored GI50 values): 112 µM | GI50 ([1]; HCC1143, cell line HCC1143): 112 µM | GI50 ([1]; HCC1187, HCC1187 cell line, censored GI50 values): 1550 µM | GI50 ([1]; HCC1187, cell line HCC1187): 1550 µM | GI50 ([1]; HCC1395, HCC1395 cell line, censored GI50 values): 87.1 µM | GI50 ([1]; HCC1395, cell line HCC1395): 87.1 µM | GI50 ([1]; HCC1419, HCC1419 cell line, censored GI50 values): 14.1 µM | GI50 ([1]; HCC1419, cell line HCC1419): 14.1 µM | GI50 ([1]; HCC1428, HCC1428 cell line, censored GI50 values): 204 µM | GI50 ([1]; HCC1428, cell line HCC1428): 204 µM | GI50 ([1]; HCC1500, HCC1500 cell line, censored GI50 values): 63.1 µM | GI50 ([1]; HCC1500, cell line HCC1500): 63.1 µM | GI50 ([1]; HCC1806, HCC1806 cell line, censored GI50 values): 74.1 µM | GI50 ([1]; HCC1806, cell line HCC1806): 74.1 µM | GI50 ([1]; HCC1937, HCC1937 cell line, censored GI50 values): 6.92 µM | GI50 ([1]; HCC1937, cell line HCC1937): 6.92 µM | GI50 ([1]; HCC1954, HCC1954 cell line, censored GI50 values): 0.692 µM | GI50 ([1]; HCC1954, cell line HCC1954): 0.692 µM | GI50 ([1]; HCC2185 cell line, censored GI50 values): 407 µM | GI50 ([1]; HCC3153 cell line, censored GI50 values): 5.75 µM | GI50 ([1]; LY2 cell line, censored GI50 values): 1510 µM | GI50 ([1]; MCF7, MCF7 cell line, censored GI50 values): 85.1 µM | GI50 ([1]; MCF7, cell line MCF7): 85.1 µM | GI50 ([1]; MDA-MB-134-VI, MDAMB134VI cell line, censored GI50 values): 1070 µM | GI50 ([1]; MDA-MB-157, MDAMB157 cell line, censored GI50 values): 1020 µM | GI50 ([1]; MDA-MB-157, cell line MDAMB157): 1020 µM | GI50 ([1]; MDA-MB-175-VII, MDAMB175VII cell line, censored GI50 values): 617 µM | GI50 ([1]; MDA-MB-231, MDAMB231 cell line, censored GI50 values): 2510 µM | GI50 ([1]; MDA-MB-231, cell line MDAMB231): 2510 µM | GI50 ([1]; MDA-MB-361, MDAMB361 cell line, censored GI50 values): 708 µM | GI50 ([1]; MDA-MB-361, cell line MDAMB361): 708 µM | GI50 ([1]; MDA-MB-415, MDAMB415 cell line, censored GI50 values): 75.9 µM | GI50 ([1]; MDA-MB-415, cell line MDAMB415): 75.9 µM | GI50 ([1]; MDA-MB-436, MDAMB436 cell line, censored GI50 values): 380 µM | GI50 ([1]; MDA-MB-436, cell line MDAMB436): 380 µM | GI50 ([1]; MDA-MB-453, MDAMB453 cell line, censored GI50 values): 501 µM | GI50 ([1]; MDA-MB-453, cell line MDAMB453): 501 µM | GI50 ([1]; MDA-MB-468, MDAMB468 cell line, censored GI50 values): 0.891 µM | GI50 ([1]; MDA-MB-468, cell line MDAMB468): 0.891 µM | GI50 ([1]; SK-BR-3, cell line SKBR3): 5010 µM | GI50 ([1]; SUM52PE, cell line SUM52PE): 3.55 µM | GI50 ([1]; SUM149PT, SUM149PT cell line, censored GI50 values): 28.8 µM | GI50 ([1]; SUM149PT, cell line SUM149PT): 28.8 µM | GI50 ([1]; SUM185PE, cell line SUM185PE): 501 µM | GI50 ([1]; SUM1315MO2, SUM1315MO2 cell line, censored GI50 values): 708 µM | GI50 ([1]; SUM-159-PT, SUM159PT cell line, censored GI50 values): 107 µM | GI50 ([1]; SUM-159-PT, cell line SUM159PT): 107 µM | GI50 ([1]; T47D, cell line T47D): 9.33 µM | GI50 ([1]; UACC-812, cell line UACC812): 339 µM | GI50 ([1]; UACC-893, cell line UACC893): 2090 µM | GI50 ([1]; ZR-75-1, cell line ZR751): 501 µM | GI50 ([1]; ZR-75-30, cell line ZR7530): 5010 µM | GI50 ([1]; ZR-75B, cell line ZR75B): 562 µM | GI50 ([1]; cell line 600MPE): 468 µM | GI50 ([1]; cell line HCC2185): 407 µM | GI50 ([1]; cell line HCC3153): 5.75 µM | GI50 ([1]; cell line LY2): 1510 µM | GI50 ([1]; cell line MDAMB134V): 1070 µM | GI50 ([1]; cell line MDAMB175V): 617 µM | GI50 ([1]; cell line SUM1315MO): 708 µM | Subtype specificity [2]: Basal
